The text below walks through data of article PMC11079024, “Identification of a family of species-selective complex I inhibitors as potential anthelmintics” (Nature Communications, 2024).

Molecules are shown by their SMILES. Read-outs that look alike come from different tables or passages of the source.

For series [1], the system named is L1 wild-type C. elegans. Put plainly: microbe, parasite or virus in culture. The note with it: Caenorhabditis elegans, read-out: C. elegans KCN Survival Assay LC50, estimated from fitted dose-response curves; mean of at least two biological replicates.
The subject of series [2] is ben-1 mutant (ECA882) C. elegans. In words: microbe, parasite or virus in culture. The note with it: Caenorhabditis elegans. The essentials:
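Development and viability scored from single well images as total worm pixels divided by the matching DMSO control value, mean of ≥3 replicates. Worms added as synchronized L1s to HB101 suspension in liquid NGM with compound (1% DMSO v/v), grown 6 days at 20 °C with shaking.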

The nature of series [3]: in vitro. The settings on record: human.
Series [4] deals with L1 wild-type C. elegans. The settings on record: for Screen "Hit": 50 μM.
The mark [5] stands for this setting: read-out: C. elegans (ben-1) Development & Viability Assay LC50.
Where [6] appears, read: read-out: C. elegans ben-1(e1880) development/viability.
Setting [7] is: read-out: C. elegans ben-1 log10 LC50 (converted).

`Cc1nc2ccccc2n1CCOc1ccccc1Cl` [Compound 5561642]: the LC50 in series [1] was 11.7 µM. Moreover, the LC50 in series [2] (setting [5]) turned out to be 636 µM. Besides, in series [2] (setting [6]), the viability at 1 µM is 97%, the viability at 2 µM turned out to be 98.6%, the viability at 3.9 µM was found to be 100% and the viability at 15.6 µM came to 99.1%. Besides, in series [2] (setting [6]), the viability at 31.3 µM is 100%, the viability at 62.5 µM came out at 91.8%, the viability at 125 µM worked out at 98.9% and the viability at 250 µM is 96.4%. Further, in series [2] (setting [6]), the viability at 500 µM was 35.3% and the viability at 1000 µM is 46.7%. Further, the LC50 in series [2] (setting [7]) was 635 µM. Further, the CC50 at 2 days in series [3] was found to be 93.1 µM. Moreover, in series [3] (HEK293 cells (Flp-In-293), HEK293 viability, Dose 3.13 µM), the viability at 2 days, 3.13 µM came to 100%. The same molecule registered a viability at 2 days, 6.25 µM in series [3] (HEK293 cells (Flp-In-293), HEK293 viability, Dose 6.25 µM) of 100%. The same molecule had a viability at 2 days, 12.5 µM in series [3] (HEK293 cells (Flp-In-293), HEK293 viability, Dose 12.5 µM) of 100%. In addition, in series [3] (HEK293 cells (Flp-In-293), HEK293 viability, Dose 25 µM), the viability at 2 days, 25 µM worked out at 100%. Further, in series [3] (HEK293 cells (Flp-In-293), HEK293 viability, Dose 50 µM), the viability at 2 days, 50 µM was 81.4%. Further, in series [3] (HEK293 cells (Flp-In-293), HEK293 viability, Dose 100 µM), the viability at 2 days, 100 µM stood at 46.4%. Also, the “Screen "Hit"” value in series [4] (hit = relative motility below 0.25 3 hours after removal of KCN) was “Y (hits were identified as compounds that reduced relative motility below 0.25 (75% reduction))”. Moreover, in series [4] (Dose 0.2 µM, mean of at least three biological replicates), the “C. elegans KCN Survival” value was determined as 0.982. For the same molecule, the “C. elegans KCN Survival” value in series [4] (Dose 0.39 µM) is 1.047. Also, the “C. elegans KCN Survival” value in series [4] (Dose 1.56 µM) came to 0.991. Further, the “C. elegans KCN Survival” value in series [4] (Dose 3.13 µM) is given as 0.985. In series [4] (Dose 6.25 µM), the “C. elegans KCN Survival” value was 0.849. Further, the “C. elegans KCN Survival” value in series [4] (Dose 12.5 µM) was 0.500. For the same molecule, the “C. elegans KCN Survival” value in series [4] (Dose 25 µM) is listed as 0.148. Also, the “C. elegans KCN Survival” value in series [4] (Dose 50 µM) was 0.182.
`Cc1nc2ccccc2n1Cc1ccccc1Cl` [Compound 6707368]: the values for the median lethal concentration (LC50) in series [1], in series [2] (setting [5]) and in series [2] (setting [7]) were 8.24 µM, 135 µM and 135 µM, respectively. In series [3], this molecule came in with a CC50 at 2 days above 100 µM. Moreover, in series [4] (KCN survival assay, hit = relative motility below 0.25), the “Screen "Hit"” value is recorded as “Y (hits were identified as compounds that reduced relative motility below 0.25 (75% reduction))”.
